# Laboratory results: paper PMC7377239, “Cardiovascular Effects of Polychlorinated Biphenyls and Their Major Metabolites” (Environmental Health Perspectives, 2020)
# Read-outs that look alike come from different tables or passages of the source.
# Test system: iCell cardiomyocytes (human iPSC-derived cardiomyocytes)
# Test: High-content imaging of cytotoxicity and mitochondrial integrity in iPSC-CMs
# Type: cell-based
# Details: Homo sapiens, Cardiomyocyte; for viability at 0.01 µM / activity at 0.01 µM / viability at 0.1 µM / activity at 0.1 µM / viability at 1 µM / activity at 1 µM / viability at 10 µM / activity at 10 µM / viability at 100 µM / activity at 100 µM: 0.00 µM = 100.00; for viability at 0.1 µM / activity at 0.1 µM: 0.10 µM
# Description: Details on cardiomyocyte cell culture are described in detail elsewhere ([Grimm et al. 2015b]; [Sirenko et al. 2013a]). Briefly, tissue-culture treated 384 well plates were gelatinized with 25μL per well of 0.1% (w/v) gelatin in water for 2 h at 37°C and 5% CO2 . Individual vials of cells were thawed for 4 min in a water bath maintained at 37°C. Thawed cells were resuspended in 10ml plating medium containing 1:500 (vol/vol) penicillin/streptomycin solution at room temperature (RT). Live cell counts for each cell suspension were determined by trypan blue staining and cells were further diluted to provide final cell densities of 2×10^5 viable cells/ml. Thus, 5,000 cells suspended in 25μL media were transferred per well after the gelatin solution had been discarded. Cell culture plates were rested for 30 min at RT before they were incubated for 48 h at 37°C and 5% CO2 . Then, a media exchange with 30μL of fresh maintenance medium containing 1:500 (vol/vol) penicillin/streptomycin solution was performed, and cell media were subsequently changed every 48 h for 12 d. On the experiment day, the medium was completely exchanged with either 25μL (for Ca^2+ flux assay) or 40μL (for imaging) of fresh medium.
# Cytotoxicity and effects on mitochondrial integrity of various PCBs and PCB metabolites in induced pluripotent stem cell-CMs (iPSC-CMs) were assessed using high-content cellular imaging in ImageXpress® Micro Confocal (Molecular Devices) as detailed in ([Grimm et al. 2015b]). Cells in 40μL maintenance media were treated with 10μL of 5× chemical solutions to provide test chemicals at final assay concentrations ranging from 0.01 to 100μM . […] Next, sample wells were treated with 50μL equilibrated 2× concentrated staining solution (maintenance medium containing Hoechst 33342, 4μg/mL and MitoTracker™ Orange, 0.4μM ). Microplates were then incubated for 15 min at 37°C and 5% CO2 before cells were washed twice with 30μL maintenance medium. All media were aspirated and discarded, and cells were fixed with […] of a 3.7% formaldehyde solution for 15 min at 37°C and 5% […] . Fixed cells were washed 3× with 25μL PBS before image acquisition using the DAPI (Hoechst 33342) and Cy3 (MitoTracker™ Orange) filters at 10× magnification on the ImageXpress® Micro Confocal high-content confocal microscope (Molecular Devices). The multiwavelength cell scoring applications module in MetaXpress® was used to analyze acquired images.
# Phenotypic responses were quantitatively assessed using concentration–response modeling as detailed elsewhere ([Sirenko et al. 2017]). Briefly, phenotypic readouts were normalized to vehicle controls and fit to a four-parameter logistic model in R studio software (version 3.1.1; R Development Core Team). Following EPA guidance on dose–response modeling, a cutoff of one standard deviation across means of vehicle control (i.e., 0.5% vol/vol DMSO in cell culture media) wells was applied to determine the point-of-departure (POD) values ([U.S. EPA 2012]). In the absence of a concentration–response, the highest tested concentration (i.e., 100μM ) was assigned as “no observable adverse effect level.” The concentration–response assessment R script, as well as templates for vehicle and concentration–response data, are available as a supplement to Sirenko et al. ([2017]). The ability of physicochemical properties to predict differences in PODs were evaluated by multiregression and mixed-effects modeling using R.
# [1] = 1.5 h, 90min, read-out: cm.cam.90min
# [2] = 1.5 h, 90min, read-out: cm.mii.90min
# [3] = 1.5 h, 90min, read-out: cm.mito.90min
# [4] = 1.5 h, 90min, read-out: cm.tc.90min
# [5] = 24 h, 24hrs, read-out: cm.cam.24hrs
# [6] = 24 h, 24hrs, read-out: cm.mii.24hrs
# [7] = 24 h, 24hrs, read-out: cm.mito.24hrs
# [8] = 24 h, 24hrs, read-out: cm.tc.24hrs
smiles,measurement,setting,value
Clc1ccc(Cl)c(-c2c(Cl)ccc(Cl)c2Cl)c1 [PCB95],viability at 0.01 µM,[1],98.2%
same,activity at 0.01 µM,[2],114%
same,activity at 0.01 µM,[3],97.8%
same,viability at 0.01 µM,[4],97.9%
same,viability at 0.1 µM,[1],95.8%
same,activity at 0.1 µM,[2],100%
same,activity at 0.1 µM,[3],95.4%
same,viability at 0.1 µM,[4],95.4%
same,viability at 1 µM,[1],93.8%
same,activity at 1 µM,[2],109%
same,activity at 1 µM,[3],93.2%
same,viability at 1 µM,[4],93.1%
same,viability at 10 µM,[1],107%
same,activity at 10 µM,[2],110%
same,activity at 10 µM,[3],107%
same,viability at 10 µM,[4],107%
same,viability at 100 µM,[1],0.65%
same,activity at 100 µM,[2],92.8%
same,activity at 100 µM,[3],0.97%
same,viability at 100 µM,[4],1.11%
same,minimal effective concentration,"1.5 h, 90min, read-out: cm.cam.90min POD",36.6 µM
same,minimal effective concentration,"1.5 h, 90min, read-out: cm.mii.90min POD",100 µM
same,minimal effective concentration,"1.5 h, 90min, read-out: cm.mito.90min POD",39.6 µM
same,minimal effective concentration,"1.5 h, 90min, read-out: cm.tc.90min POD",38.7 µM
same,viability at 0.01 µM,[5],97.2%
same,activity at 0.01 µM,[6],90.3%
same,activity at 0.01 µM,[7],95.7%
same,viability at 0.01 µM,[8],97.3%
same,viability at 0.1 µM,[5],98.9%
same,activity at 0.1 µM,[6],99%
same,activity at 0.1 µM,[7],99%
same,viability at 0.1 µM,[8],99%
same,viability at 1 µM,[5],99.8%
same,activity at 1 µM,[6],100%
same,activity at 1 µM,[7],97.7%
same,viability at 1 µM,[8],98.7%
same,viability at 10 µM,[5],93.8%
same,activity at 10 µM,[6],95.1%
same,activity at 10 µM,[7],92.7%
same,viability at 10 µM,[8],93.5%
same,viability at 100 µM,[5],1.96%
same,activity at 100 µM,[6],34.3%
same,activity at 100 µM,[7],1.73%
same,viability at 100 µM,[8],2.9%
same,minimal effective concentration,"24 h, read-out: cm.cam.24hrs POD",8.98 µM
same,minimal effective concentration,"24 h, read-out: cm.mii.24hrs POD",22.2 µM
same,minimal effective concentration,"24 h, read-out: cm.mito.24hrs POD",8.96 µM
same,minimal effective concentration,"24 h, read-out: cm.tc.24hrs POD",8.75 µM
"Clc1ccc(Cl)c(-c2cc(Cl)ccc2Cl)c1 [PCB 52, 2,2′,5,5′-tetrachlorobiphenyl]",minimal effective concentration,"1.5 h, cardiomyocytes (cm), cam, 90 min, read-out: POD cm.cam.90min",36 µM
same,minimal effective concentration,"1.5 h, cardiomyocytes (cm), mii, 90 min, read-out: POD cm.mii.90min",10.4 µM
same,minimal effective concentration,"1.5 h, cardiomyocytes (cm), mito, 90 min, read-out: POD cm.mito.90min",39.2 µM
same,minimal effective concentration,"1.5 h, cardiomyocytes (cm), tc, 90 min, read-out: POD cm.tc.90min",38.9 µM
same,minimal effective concentration,"24 h, cardiomyocytes (cm), cam, 24 hrs, read-out: POD cm.cam.24hrs",7.5 µM
same,minimal effective concentration,"24 h, cardiomyocytes (cm), mii, 24 hrs, read-out: POD cm.mii.24hrs",34.4 µM
same,minimal effective concentration,"24 h, cardiomyocytes (cm), mito, 24 hrs, read-out: POD cm.mito.24hrs",7.32 µM
same,minimal effective concentration,"24 h, cardiomyocytes (cm), tc, 24 hrs, read-out: POD cm.tc.24hrs",8.11 µM
